Source: US20200270309A1, “MALEIMIDE GROUP-MODIFIED ANGIOGENESIS INHIBITOR HM-1 AND USE THEREOF” (NANJING ANJI BIOLOGICAL TECHNOLOGY CO., LTD, priority 2017, published 2020)
Marks after values point to notes of the source that are not given here. Peptide text beside a SMILES is read from it. * marks the point of attachment. X72 = O=C1C=CC(=O)N1c1ccccc1CCCCCCCCCCC(=O)*; X46 = O=C1C=CC(=O)N1c1cccc(CCCCC(=O)*)c1; X49 = O=C1C=CC(=O)N1c1ccccc1CCCCCC(=O)*; X61 = O=C1C=CC(=O)N1c1cccc(CCCC(=O)*)c1

Columns and labels:
[1] = system: xylene-induced ear swelling; assay: Xylene-induced mouse ear swelling; assay type: in vivo; conditions: Kunming mice, injected once a day for 5 days; for Swelling degree (mg) / Swelling degree: right minus left ear piece weight 2 h after xylene; for Inhibition rate (%): xylene-induced ear swelling
Summary of the method: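 Ear pieces punched and weighed 2 h after xylene (0.05 mL, right ear only; left ear as normal) gave swelling degree (right − left weight) and swelling rate (degree/left weight ×100%). Kunming mice received injections daily for 5 consecutive days, xylene applied 1 h after final dose.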

HUVECs = assay: Transwell migration inhibition on HUVECs; assay type: cell-based, human; conditions: for Inhibition rate (%): HUVEC migration vs blank control; for Cell migration number (Mean ± SD): HUVECs, transwell, 24 h
[2] = system: retinal vascular endothelial nuclei; assay: Neovascularization in a rat model of premature retinopathy; assay type: in vivo, rats; conditions: for Nuclei count (retinal vascular endothelial nuclei, average per section per eyeball): dose 0.05 μM in the vitreous chamber from day 7 of modeling for one week, counted on day 14, oxygen-induced neonatal rats
Summary of the method: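 Newborn rats kept 7 d in chamber alternating 80% and 10% O2 every 24 h (23 °C), then room air. Intravitreal injection of test agents on day 7, saline for model and control; eyes taken day 14, HE-stained 4 μm sections. Endothelial nuclei breaching retinal inner limiting membrane counted, averaged per section per eye (10 sections).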

[3] = system: collagen-induced arthritis; assay: Mouse collagen-induced arthritis (CIA) animal model; assay type: in vivo; conditions: DBA/1 mice CIA model, dose 4.0 mg/kg, subcutaneous from day 30, n=10; for Clinical score: highest score 16
[4] = Half-lives and pharmacokinetic parameters of polypeptides vs HM-1; conditions: in vivo; for half-life: T1/2β (half-life)
[5] = system: retinal neovascularization (OIR model); assay: Retinal vessels in OIR mice; assay type: in vivo, C57/B16 mice; conditions: for Area of neovascular plexus (mm^2): dose 0.05 μM in the vitreous chamber on day 13, retinal vessels evaluated on day 17; for Inhibition rate (%): dose 0.05 μM in the vitreous chamber on day 13, retinal vessels evaluated on day 17, vs negative control
Summary of the method: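 C57/B16 pups were held in 75% oxygen from postnatal day 7 to 12, then returned to room air. On day 13 they received intravitreal saline or compound. On day 17 perfused vessels were labelled by Texas red tomato agglutinin injected into the left ventricle (5 min circulation) and retinal vasculature assessed.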

[6] = system: IL-1β production by mouse peritoneal macrophages; assay: IL-1β production by mouse peritoneal macrophages (ELISA); assay type: cell-based; conditions: for Inhibition rate: IL-1β production, vs model group; for IL-1β: mouse peritoneal macrophages, 48 h, ELISA
Summary of the method: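 Peptides tested at three concentration levels on adherent peritoneal macrophages harvested from mice 3 days after i.p. 6% starch broth, plated at 2×10^6 cells/mL. After 48 h culture with Dex as reference, IL-1β in supernatants was quantified.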

C[C@H](NC(=O)CNC(=O)[C@H](CCCNC(=N)N)NC(=O)CCCCCCCCCCc1ccccc1N1C(=O)C=CC1=O)C(=O)N[C@@H](CC(=O)O)C(=O)N[C@@H](CCCNC(=N)N)C(=O)N[C@@H](C)C(=O)NCC(=O)NCC(=O)NCC(=O)NCC(=O)N[C@@H](CCCNC(=N)N)C(=O)NCC(=O)N[C@@H](CC(=O)O)C(=O)O [X22] (X72-RGADRAGGGGRGD-OH)
Swelling degree (mg) ([1]; dose 2 mg/kg): 4.72 ± 0.29* mg
Inhibition rate (%) ([1]; dose 2 mg/kg): 24.24%
Swelling degree (mg) ([1]; dose 4 mg/kg): 3.67 ± 0.77** mg
Inhibition rate (%) ([1]; dose 4 mg/kg): 41.09%
Swelling degree (mg) ([1]; dose 8 mg/kg): 3.42 ± 0.21** mg
Inhibition rate (%) ([1]; dose 8 mg/kg): 45.10%
Inhibition rate (%) (HUVECs; dose 0.05 μM): 48.22%
Inhibition rate (%) (HUVECs; dose 0.1 μM): 55.21%
Inhibition rate (%) (HUVECs; dose 0.2 μM): 57.65%
Cell migration number (Mean ± SD) (HUVECs; dose 0.05 μM): 555.03 ± 66.81
Cell migration number (Mean ± SD) (HUVECs; dose 0.1 μM): 480.13 ± 67.49
Cell migration number (Mean ± SD) (HUVECs; dose 0.2 μM): 453.97 ± 57.23
Nuclei count (retinal vascular endothelial nuclei, average per section per eyeball) [2]: 7.368 ± 1.842
Joint swelling degree (mm) [3]: 0.75 ± 0.14 mm
Left and right paw swelling degree (mm) [3]: 0.83 ± 0.13 mm
Clinical score [3]: 8.67 ± 1.32
AUC(0-inf) [4]: 28200 ± 7980 ng·h/mL
MRT inf [4]: 50.5 ± 13.6 h
clearance [4]: 0.59 mL/min/kg
half-life [4]: 35.03 ± 0.27 h
Area of neovascular plexus (mm^2) [5]: 0.082 ± 0.005 mm^2
Inhibition rate (%) [5]: 61.32%**
Inhibition rate ([6]; dose 0.05 μM): 29.53%
IL-1β ([6]; dose 0.05 μM): 663.21 ± 13.73 pg/mL
Inhibition rate ([6]; dose 0.1 μM): 32.31%
IL-1β ([6]; dose 0.1 μM): 637.07 ± 19.81 pg/mL
Inhibition rate ([6]; dose 0.2 μM): 38.53%
IL-1β ([6]; dose 0.2 μM): 578.51 ± 14.03 pg/mL

C[C@H](NC(=O)CNC(=O)[C@H](CCCNC(=N)N)NC(=O)CCCCCc1ccccc1N1C(=O)C=CC1=O)C(=O)N[C@@H](CC(=O)O)C(=O)N[C@@H](CCCNC(=N)N)C(=O)N[C@@H](C)C(=O)NCC(=O)NCC(=O)NCC(=O)NCC(=O)N[C@@H](CCCNC(=N)N)C(=O)NCC(=O)N[C@@H](CC(=O)O)C(=O)O [X17] (X49-RGADRAGGGGRGD-OH)
Swelling degree (mg) ([1]; dose 2 mg/kg): 4.65 ± 0.79* mg
Inhibition rate (%) ([1]; dose 2 mg/kg): 25.36%
Swelling degree (mg) ([1]; dose 4 mg/kg): 4.43 ± 0.75* mg
Inhibition rate (%) ([1]; dose 4 mg/kg): 28.89%
Swelling degree (mg) ([1]; dose 8 mg/kg): 3.53 ± 0.1** mg
Inhibition rate (%) ([1]; dose 8 mg/kg): 43.34%
Inhibition rate (%) (HUVECs; dose 0.05 μM): 48.96%
Inhibition rate (%) (HUVECs; dose 0.1 μM): 54.89%
Inhibition rate (%) (HUVECs; dose 0.2 μM): 57.52%
Cell migration number (Mean ± SD) (HUVECs; dose 0.05 μM): 547.07 ± 50.72
Cell migration number (Mean ± SD) (HUVECs; dose 0.1 μM): 483.55 ± 66.46
Cell migration number (Mean ± SD) (HUVECs; dose 0.2 μM): 455.35 ± 68.52
Nuclei count (retinal vascular endothelial nuclei, average per section per eyeball) [2]: 7.012 ± 1.321
retinal vascular endothelial nuclei count ([2]; dose 0.05 μm, vitreous injection): 7.012±1.321
Joint swelling degree (mm) [3]: 0.79 ± 0.12 mm
Left and right paw swelling degree (mm) [3]: 0.78 ± 0.17 mm
Clinical score [3]: 9.13 ± 1.31
AUC(0-inf) [4]: 30000 ± 7060 ng·h/mL
MRT inf [4]: 53.8 ± 12.3 h
clearance [4]: 0.555 mL/min/kg
half-life [4]: 37.26 ± 0.29 h
Area of neovascular plexus (mm^2) [5]: 0.084 ± 0.009 mm^2
Inhibition rate (%) [5]: 60.38%**
Inhibition rate ([6]; dose 0.05 μM): 16.02%
IL-1β ([6]; dose 0.05 μM): 790.35 ± 11.07 pg/mL
Inhibition rate ([6]; dose 0.1 μM): 43.57%
IL-1β ([6]; dose 0.1 μM): 531.11 ± 17.61 pg/mL
Inhibition rate ([6]; dose 0.2 μM): 43.90%
IL-1β ([6]; dose 0.2 μM): 528.00 ± 10.53 pg/mL

C[C@H](NC(=O)CNC(=O)[C@H](CCCNC(=N)N)NC(=O)CCCc1cccc(N2C(=O)C=CC2=O)c1)C(=O)N[C@@H](CC(=O)O)C(=O)N[C@@H](CCCNC(=N)N)C(=O)N[C@@H](C)C(=O)NCC(=O)NCC(=O)NCC(=O)NCC(=O)N[C@@H](CCCNC(=N)N)C(=O)NCC(=O)N[C@@H](CC(=O)O)C(=O)O [X27] (X61-RGADRAGGGGRGD-OH)
Swelling degree ([1]; dose 2 mg/kg): 5.36 ± 0.32 mg
Inhibition rate (%) ([1]; dose 2 mg/kg): 13.96%
Swelling degree (mg) ([1]; dose 4 mg/kg): 4.76 ± 0.89* mg
Inhibition rate (%) ([1]; dose 4 mg/kg): 23.60%
Swelling degree (mg) ([1]; dose 8 mg/kg): 3.13 ± 0.38* mg
Inhibition rate (%) ([1]; dose 8 mg/kg): 27.13%
Inhibition rate (%) (HUVECs; dose 0.05 μM): 46.39%
Inhibition rate (%) (HUVECs; dose 0.1 μM): 49.01%
Inhibition rate (%) (HUVECs; dose 0.2 μM): 53.38%
Cell migration number (Mean ± SD) (HUVECs; dose 0.05 μM): 574.65 ± 60.83
Cell migration number (Mean ± SD) (HUVECs; dose 0.1 μM): 546.51 ± 46.67
Cell migration number (Mean ± SD) (HUVECs; dose 0.2 μM): 499.65 ± 59.06
Nuclei count (retinal vascular endothelial nuclei, average per section per eyeball) [2]: 8.358 ± 1.328
Joint swelling degree (mm) [3]: 0.78 ± 0.19 mm
Left and right paw swelling degree (mm) [3]: 0.75 ± 0.13 mm
Clinical score [3]: 8.75 ± 1.43
AUC(0-inf) [4]: 26200 ± 7250 ng·h/mL
MRT inf [4]: 46.9 ± 9.74 h
clearance [4]: 0.635 mL/min/kg
half-life [4]: 32.52 ± 0.25 h
Area of neovascular plexus (mm^2) [5]: 0.106 ± 0.002 mm^2
Inhibition rate (%) [5]: 50.00%**
Inhibition rate ([6]; dose 0.05 μM): 25.91%
IL-1β ([6]; dose 0.05 μM): 697.32 ± 17.18 pg/mL
Inhibition rate ([6]; dose 0.1 μM): 30.97%
IL-1β ([6]; dose 0.1 μM): 649.68 ± 18.74 pg/mL
Inhibition rate ([6]; dose 0.2 μM): 33.62%
IL-1β ([6]; dose 0.2 μM): 624.72 ± 14.38 pg/mL

C[C@H](NC(=O)CNC(=O)[C@H](CCCNC(=N)N)NC(=O)CCCCc1cccc(N2C(=O)C=CC2=O)c1)C(=O)N[C@@H](CC(=O)O)C(=O)N[C@@H](CCCNC(=N)N)C(=O)N[C@@H](C)C(=O)NCC(=O)NCC(=O)NCC(=O)NCC(=O)N[C@@H](CCCNC(=N)N)C(=O)NCC(=O)N[C@@H](CC(=O)O)C(=O)O [X28] (X46-RGADRAGGGGRGD-OH)
Swelling degree (mg) ([1]; dose 2 mg/kg): 5.25 ± 0.56** mg
Inhibition rate (%) ([1]; dose 2 mg/kg): 33.87%
Swelling degree ([1]; dose 4 mg/kg): 4.86 ± 0.63 mg
Inhibition rate (%) ([1]; dose 4 mg/kg): 15.73%
Swelling degree (mg) ([1]; dose 8 mg/kg): 4.12 ± 0.93* mg
Inhibition rate (%) ([1]; dose 8 mg/kg): 21.99%
Inhibition rate (%) (HUVECs; dose 0.05 μM): 43.01%
Inhibition rate (%) (HUVECs; dose 0.1 μM): 52.75%
Inhibition rate (%) (HUVECs; dose 0.2 μM): 53.13%
Nuclei count (retinal vascular endothelial nuclei, average per section per eyeball) [2]: 9.261 ± 3.879
Joint swelling degree (mm) [3]: 0.72 ± 0.18 mm
Left and right paw swelling degree (mm) [3]: 0.73 ± 0.18 mm
Clinical score [3]: 8.83 ± 1.26
AUC(0-inf) [4]: 25100 ± 7920 ng·h/mL
MRT inf [4]: 45 ± 13 h
clearance [4]: 0.663 mL/min/kg
half-life [4]: 31.19 ± 0.26 h
Area of neovascular plexus (mm^2) [5]: 0.088 ± 0.004 mm^2
Inhibition rate (%) [5]: 58.49%**
Inhibition rate ([6]; dose 0.05 μM): 15.78%
IL-1β ([6]; dose 0.05 μM): 792.64 ± 11.74 pg/mL
Inhibition rate ([6]; dose 0.1 μM): 31.90%
IL-1β ([6]; dose 0.1 μM): 640.89 ± 14.7 pg/mL
Inhibition rate ([6]; dose 0.2 μM): 32.28%
IL-1β ([6]; dose 0.2 μM): 637.34 ± 10.85 pg/mL
